Test results reported in patent US10294202B2, “Pyrrolidinones as herbicides” (FMC Corporation, priority 2013, dated 2019).

How the values were obtained:
[1] = test system: kochia; test: Test A pre-/postemergence herbicide test; format: in vivo, Kochia scoparia; conditions: for Plant response rating, Kochia: 0 to 100 scale
In short: (§1)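 Visual 0–100 ratings (100 = complete control) made about 10 days after treatment, greenhouse-held plants compared with untreated controls. Treatments: postemergence sprays on one- to two-leaf plants (2–10 cm tall) and preemergence directed soil sprays after planting in loam–sand, chemicals formulated in non-phytotoxic solvent containing surfactant.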

[2] = test system: ryegrass, Italian; test: Test A pre-/postemergence herbicide test; format: in vivo, Lolium multiflorum; conditions: for Plant response rating, Ryegrass, Italian: 0 to 100 scale
In short: as §1

[3] = test system: blackgrass; test: Test A postemergence herbicide test; format: in vivo, Alopecurus myosuroides; conditions: for Plant response rating, Blackgrass: 125 g ai/ha, 0 to 100 scale, 0 no effect, 100 complete control; for Blackgrass plant response rating (0 to 100 scale, 0 is no effect, 100 is complete control): 500 g ai/ha
In short: (§2)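 Visual injury rating, 0 (no effect) to 100 (complete control), versus untreated controls ~10 days after treatment. Postemergence spray applied at one- to two-leaf stage, plants 2–10 cm tall, potted in loam soil/sand. Greenhouse-held.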

[4] = test system: giant foxtail; test: Test A pre-/postemergence herbicide test; format: in vivo, Setaria faberii; conditions: for Plant response rating, Foxtail, Giant: 0 to 100 scale
In short: as §1

[5] = test system: pigweed; test: Test A pre-/postemergence herbicide test; format: in vivo, Amaranthus retroflexus; conditions: for Plant response rating, Pigweed: 0 to 100 scale
In short: as §1

[6] = test system: galium; test: Test A postemergence herbicide test; format: in vivo, Galium aparine; conditions: for Plant response rating, Galium: 125 g ai/ha, 0 to 100 scale, 0 no effect, 100 complete control; for Galium plant response rating (0 to 100 scale, 0 is no effect, 100 is complete control): 500 g ai/ha
In short: as §2

[7] = test system: barnyardgrass; test: Test B flooded paddy test; format: in vivo, Echinochloa crus-galli; conditions: 500 g ai/ha, Flood; scale of 0 to 100 where 0 is no effect and 100 is complete control
In short: (§3)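 In-water application to pots flooded 3 cm deep, plants at 2-leaf stage. Held in greenhouse 13–15 days at constant flood depth. Scored 0–100 by eye against controls.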

[8] = test system: corn; test: Test A pre-/postemergence herbicide test; format: in vivo, Zea mays; conditions: Postemergence; for Plant response rating, Corn: 125 g ai/ha, 0 to 100 scale, 0 no effect, 100 complete control; for Corn plant response rating (0 to 100 scale, 0 is no effect, 100 is complete control): 500 g ai/ha
In short: as §1

[9] = test system: barnyardgrass; test: Test A pre-/postemergence herbicide test; format: in vivo, Echinochloa crus-galli
In short: as §1

[10] = test system: rice; test: Test B flooded paddy test; format: in vivo, Oryza sativa; conditions: 500 g ai/ha, Flood; scale of 0 to 100 where 0 is no effect and 100 is complete control
In short: as §3

[11] = test system: wheat; test: Test A pre-/postemergence herbicide test; format: in vivo, Triticum aestivum; conditions: Postemergence; for Plant response rating, Wheat: 125 g ai/ha, 0 to 100 scale, 0 no effect, 100 complete control; for Wheat plant response rating (0 to 100 scale, 0 is no effect, 100 is complete control): 500 g ai/ha
In short: as §1

[12] = test system: sedge, umbrella; test: Test B flooded paddy test; format: in vivo, Cyperus difformis; conditions: 500 g ai/ha, Flood; scale of 0 to 100 where 0 is no effect and 100 is complete control
In short: as §3

[13] = test system: ducksalad; test: Test B flooded paddy test; format: in vivo, Heteranthera limosa; conditions: 500 g ai/ha, Flood; scale of 0 to 100 where 0 is no effect and 100 is complete control
In short: as §3

[14] = test system: ragweed; test: Test A pre-/postemergence herbicide test; format: in vivo, Ambrosia elatior; conditions: for Plant response rating, Ragweed: 0 to 100 scale
In short: as §1

[15] = 125 g ai/ha, visual rating, 0 no effect, 100 complete control, approximately 10 days, preemergence
[16] = Postemergence, 125 g ai/ha, 0 no effect, 100 complete control
[17] = 125 g ai/ha, visual rating, 0 to 100 scale, 0 no effect, 100 complete control, approximately 10 days, preemergence
[18] = Postemergence, 125 g ai/ha, 0 to 100 scale, 0 no effect, 100 complete control
[19] = preemergence, 500 g ai/ha, 0 to 100 scale (0 no effect, 100 complete control)

SMILES | Plant response rating, Kochia [1, 15] | Plant response rating, Kochia [1, 16] | Kochia plant response rating (0 to 100 scale, 0 is no effect, 100 is complete control) ([1]; Postemergence, 500 g ai/ha) | Plant response rating, Kochia ([1]; preemergence, 500 g ai/ha) | Plant response rating, Ryegrass, Italian [2, 15] | Plant response rating, Ryegrass, Italian [2, 16] | Ryegrass, Italian plant response rating (0 to 100 scale, 0 is no effect, 100 is complete control) ([2]; Postemergence, 500 g ai/ha) | Plant response rating, Ryegrass, Italian ([2]; preemergence, 500 g ai/ha) | Plant response rating, Blackgrass [3] | Blackgrass plant response rating (0 to 100 scale, 0 is no effect, 100 is complete control) [3] | Plant response rating, Foxtail, Giant [4, 15] | Plant response rating, Foxtail, Giant [4, 16] | Foxtail, Giant plant response rating (0 to 100 scale, 0 is no effect, 100 is complete control) ([4]; Postemergence, 500 g ai/ha) | Plant response rating, Foxtail, Giant ([4]; preemergence, 500 g ai/ha) | Plant response rating, Pigweed [5, 15] | Plant response rating, Pigweed [5, 16] | Pigweed plant response rating (0 to 100 scale, 0 is no effect, 100 is complete control) ([5]; Postemergence, 500 g ai/ha) | Plant response rating, Pigweed ([5]; preemergence, 500 g ai/ha) | Plant response rating, Galium [6] | Galium plant response rating (0 to 100 scale, 0 is no effect, 100 is complete control) [6] | also measured
COc1cc(C2CNC(=O)C2C(=O)Nc2ccc(F)cc2F)ccc1F (racemic) [Compound 131] | 0 | 0 | 0 | 0 | 0 | 0 | 0 | 0 | 0 | 0 | 50 | 50 | 50 | 60 | 0 | 0 | 0 | 0 | 0 | 0 | Plant response rating, Barnyardgrass [7]: 40; Plant response rating, Corn [8]: 0; Corn plant response rating (0 to 100 scale, 0 is no effect, 100 is complete control) [8]: 0; Plant response rating, Barnyardgrass [9, 17]: 50; Plant response rating, Barnyardgrass [9, 18]: 50; Barnyardgrass plant response rating (0 to 100 scale, 0 is no effect, 100 is complete control) ([9]; Postemergence, 500 g ai/ha): 60; Plant response rating, Barnyardgrass [9, 19]: 60; Plant response rating, Rice [10]: 0; Plant response rating, Wheat [11]: 0; Wheat plant response rating (0 to 100 scale, 0 is no effect, 100 is complete control) [11]: 0; Plant response rating, Sedge, Umbrella [12]: 30; Plant response rating, Ducksalad [13]: 70; Plant response rating, Ragweed [14, 15]: 0; Plant response rating, Ragweed [14, 16]: 0; Ragweed plant response rating (0 to 100 scale, 0 is no effect, 100 is complete control) ([14]; Postemergence, 500 g ai/ha): 0; Plant response rating, Ragweed ([14]; preemergence, 500 g ai/ha): 0
COc1cc(C2CNC(=O)C2C(=O)Nc2ccc(F)c(F)c2F)ccc1F (racemic) [Compound 132] | 0 | 0 | 10 | 0 | 0 | 0 | 0 | 0 | 0 | 0 | 70 | 50 | 70 | 80 | 0 | 0 | 0 | 0 | 0 | 0 | Plant response rating, Barnyardgrass [7]: 40; Plant response rating, Corn [8]: 0; Corn plant response rating (0 to 100 scale, 0 is no effect, 100 is complete control) [8]: 0; Plant response rating, Barnyardgrass [9, 17]: 70; Plant response rating, Barnyardgrass [9, 18]: 60; Barnyardgrass plant response rating (0 to 100 scale, 0 is no effect, 100 is complete control) ([9]; Postemergence, 500 g ai/ha): 80; Plant response rating, Barnyardgrass [9, 19]: 90; Plant response rating, Rice [10]: 0; Plant response rating, Wheat [11]: 0; Wheat plant response rating (0 to 100 scale, 0 is no effect, 100 is complete control) [11]: 0; Plant response rating, Sedge, Umbrella [12]: 0; Plant response rating, Ducksalad [13]: 85; Plant response rating, Ragweed [14, 15]: 0; Plant response rating, Ragweed [14, 16]: 0; Ragweed plant response rating (0 to 100 scale, 0 is no effect, 100 is complete control) ([14]; Postemergence, 500 g ai/ha): 0; Plant response rating, Ragweed ([14]; preemergence, 500 g ai/ha): 0
Cc1cc(C2CNC(=O)C2C(=O)Nc2ccccc2F)ccc1F (racemic) [Compound 139] | 0 | 0 | 0 | 30 | 0 | 0 | 0 | 0 | 0 | 20 | 50 | 30 | 30 | 90 | 0 | 0 | 0 | 20 | 0 | 30 | Plant response rating, Barnyardgrass [7]: 60; Plant response rating, Corn [8]: 0; Corn plant response rating (0 to 100 scale, 0 is no effect, 100 is complete control) [8]: 0; Plant response rating, Barnyardgrass [9, 17]: 70; Plant response rating, Barnyardgrass [9, 18]: 80; Barnyardgrass plant response rating (0 to 100 scale, 0 is no effect, 100 is complete control) ([9]; Postemergence, 500 g ai/ha): 90; Plant response rating, Barnyardgrass [9, 19]: 90; Plant response rating, Rice [10]: 0; Plant response rating, Wheat [11]: 0; Wheat plant response rating (0 to 100 scale, 0 is no effect, 100 is complete control) [11]: 0; Plant response rating, Sedge, Umbrella [12]: 0; Plant response rating, Ducksalad [13]: 100; Plant response rating, Ragweed [14, 15]: 0; Plant response rating, Ragweed [14, 16]: 0; Ragweed plant response rating (0 to 100 scale, 0 is no effect, 100 is complete control) ([14]; Postemergence, 500 g ai/ha): 0; Plant response rating, Ragweed ([14]; preemergence, 500 g ai/ha): 0
